Measured values taken from patent US20240148821A1, “PHARMACEUTICAL USE OF CYCLIC PEPTIDE COMPOUND” (CHUGAI SEIYAKU KABUSHIKI KAISHA, priority 2021, published 2024).
Numbered stars: 1 amine (or outer) side, 2 acyl side, 3 side chain; on linkers, the order of the positions; unused ones are H or OH. Bridge positions count the residues as written; N and C are the ends. Square brackets hold non-standard residues; d marks the D form. Peptide text beside a SMILES is read from it. * marks the point of attachment. hPhe(3-Cl-4-CF3) = N[C@@H](CCc1ccc(C(F)(F)F)c(Cl)c1)C(=O)O; hPhe(4-CF3) = N[C@@H](CCc1ccc(C(F)(F)F)cc1)C(=O)O; NMePhe(4-Cl) = CN[C@@H](Cc1ccc(Cl)cc1)C(=O)O; NMePhe(4-Me) = CN[C@@H](Cc1ccc(C)cc1)C(=O)O; NMedβ3hAla = C[C@H](CC(=O)[*:2])N(C)[*:1]; NMePhe(2-F) = CN[C@@H](Cc1ccccc1F)C(=O)O; hNle(7,7-F2) = N[C@@H](CCCCC(F)F)C(=O)O; NMeGly(cPent) = CN[C@H](C(=O)O)C1CCCC1; NMe3Pal = CN[C@@H](Cc1cccnc1)C(=O)O; NMeCha = CN[C@@H](CC1CCCCC1)C(=O)O; NMeCba = CN[C@@H](CC1CCC1)C(=O)O; NMeChg = CN[C@H](C(=O)O)C1CCCCC1; NMeF = CN[C@@H](Cc1ccccc1)C(=O)O; NMeI = CC[C@H](C)[C@H](NC)C(=O)O; NMeD = CN[C@@H](CC(=O)O)C(=O)O; NMeL = CN[C@@H](CC(C)C)C(=O)O; NMeV = CN[C@H](C(=O)O)C(C)C; d(β3hA) = C[C@@H](N)CC(=O)O; NMeA = CN[C@@H](C)C(=O)O; NMeAib = CNC(C)(C)C(=O)O; Piperidide = C1CCN(*)CC1; Ac5c = NC1(C(=O)O)CCCC1; Aze = O=C(O)[C@@H]1CCN1; Sar = CNCC(=O)O

These molecules were tested on Human pancreatic cancer cell line AsPC-1 (G12D mutation Kras) (assay: AsPC-1 cell growth inhibition (AsPC-1 CGI)). Conditions: read-out: AsPC-1 cell growth inhibition, 50% growth inhibitory concentration (IC50 value); 96 hours, CellTiter-Glo, values classified in ranges.
Assay type: cell-based
Protocol: Test compounds were serially dilated with dimethyl sulfoxide, and 200 nL was then dispensed to a U-bottom 96-well plate using Labcyte Echo. […] The cell suspension was dispensed to a. plate containing a test compound at 100 μL per well and incubated at 37° C. in a 5% carbon dioxide gas incubator. 96 hours later, 80 μL of CellTiter-Glo (Promega) was added to each well and fluorescence was measured.

Compound | IC50 [nM]
CC[C@H](C)[C@@H]1NC(=O)[C@H](CC(C)C)N(C)C(=O)C[C@@H](C(=O)N(C)C)N(C)C(=O)[C@H](C2CCCC2)N(C)C(=O)C2(CCCC2)NC(=O)[C@H](Cc2ccccc2F)N(C)C(=O)[C@H](CCc2ccc(C(F)(F)F)c(Cl)c2)NC(=O)CN(C)C(=O)[C@H](CC2CCCCC2)N(C)C(=O)[C@@H]2CCN2C(=O)[C@H](C)N(C)C1=O [Compound 43] ([NMeL]I[NMeA][Aze][NMeCha][Sar][hPhe(3-Cl-4-CF3)][NMePhe(2-F)][Ac5c][NMeGly(cPent)][NMeD]-NMe2; lactam N-11) | > 500
CC[C@H](C)[C@@H]1NC(=O)[C@H](CC(C)C)N(C)C(=O)C[C@@H](C)N(C)C(=O)[C@H](CC(C)C)NC(=O)C(C)(C)N(C)C(=O)[C@H](CC(C)C)NC(=O)[C@H](CCc2ccc(C(F)(F)F)c(Cl)c2)NC(=O)CN(C)C(=O)[C@H](CC2CCCCC2)N(C)C(=O)[C@@H]2CCN2C(=O)CN(C)C1=O [Compound 57] (cyclo([Aze][NMeCha][Sar][hPhe(3-Cl-4-CF3)]L[NMeAib]L[NMedβ3hAla][NMeL]I[Sar])) | > 500
CC[C@H](C)[C@@H]1NC(=O)[C@H](CC(C)C)N(C)C(=O)C[C@@H](C)NC(=O)[C@H](CC2CCC2)N(C)C(=O)C2(CCCC2)NC(=O)[C@@H]2CCCN2C(=O)[C@H](CCc2ccc(C(F)(F)F)c(Cl)c2)NC(=O)CN(C)C(=O)[C@H](CC2CCCCC2)N(C)C(=O)CN(C)C(=O)CN(C)C1=O [Compound 59] (cyclo([Ac5c][NMeCba][d(β3hA)][NMeL]I[Sar][Sar][NMeCha][Sar][hPhe(3-Cl-4-CF3)]P)) | > 500
CC[C@H](C)[C@@H]1NC(=O)[C@H](CC(C)C)N(C)C(=O)C[C@@H](C(=O)N2CCCCC2)N(C)C(=O)[C@H](C2CCCCC2)N(C)C(=O)C2(CCCC2)NC(=O)[C@H](Cc2cccnc2)N(C)C(=O)[C@H](CCc2ccc(C(F)(F)F)c(Cl)c2)NC(=O)CN(C)C(=O)[C@H](CC2CCCCC2)N(C)C(=O)CN(C)C(=O)CN(C)C1=O [Compound 63] ([NMeL]I[Sar][Sar][NMeCha][Sar][hPhe(3-Cl-4-CF3)][NMe3Pal][Ac5c][NMeChg][NMeD]-Piperidide; lactam N-11) | > 500
CC[C@H](C)[C@@H]1NC(=O)[C@H](CC(C)C)N(C)C(=O)C[C@@H](C(=O)N(C)C)N(C)C(=O)[C@H]([C@@H](C)CC)N(C)C(=O)C2(CCCC2)NC(=O)[C@@H](C)NC(=O)[C@H](CCc2ccc(C(F)(F)F)c(Cl)c2)NC(=O)CN(C)C(=O)[C@H](Cc2ccc(C)cc2)N(C)C(=O)[C@@H]2CCN2C(=O)[C@H](C)N(C)C1=O [Compound 67] ([NMeL]I[NMeA][Aze][NMePhe(4-Me)][Sar][hPhe(3-Cl-4-CF3)][dA][Ac5c][NMeI][NMeD]-NMe2; lactam N-11) | > 500
CC[C@H](C)[C@@H]1NC(=O)[C@H](C)N(C)C(=O)C[C@@H](C)NC(=O)[C@H](C(C)C)N(C)C(=O)[C@H](Cc2ccccc2)N(C)C(=O)[C@H](CC(C)C)N(C)C(=O)[C@H](CCc2ccc(C(F)(F)F)cc2)NC(=O)CN(C)C(=O)[C@H](Cc2ccc(Cl)cc2)N(C)C(=O)CN(C)C(=O)[C@@H]2CCN2C1=O [Compound 71] (cyclo([Aze][Sar][NMePhe(4-Cl)][Sar][hPhe(4-CF3)][NMeL][NMeF][NMeV][d(β3hA)][NMeA]I)) | > 500
CC[C@H](C)[C@@H]1NC(=O)[C@H](CC(C)C)N(C)C(=O)C[C@@H](C)NC(=O)[C@H](C(C)C)N(C)C(=O)C2(CCCC2)NC(=O)[C@@H]2CCCN2C(=O)[C@H](CCc2ccc(C(F)(F)F)c(Cl)c2)NC(=O)CN(C)C(=O)[C@H](CC2CCC2)N(C)C(=O)CN(C)C(=O)CN(C)C1=O [Compound 75] (cyclo([Ac5c][NMeV][d(β3hA)][NMeL]I[Sar][Sar][NMeCba][Sar][hPhe(3-Cl-4-CF3)]P)) | > 500
CC[C@H](C)[C@@H]1NC(=O)[C@H](CC(C)C)N(C)C(=O)C[C@@H](C)NC(=O)[C@H](C(C)C)N(C)C(=O)C2(CCCC2)NC(=O)[C@@H]2CCCN2C(=O)[C@H](CCc2ccc(C(F)(F)F)c(Cl)c2)NC(=O)[C@H]2CCCN2C(=O)[C@H](CC2CCCCC2)N(C)C(=O)CN(C)C(=O)CN(C)C1=O [Compound 76] (cyclo([Ac5c][NMeV][d(β3hA)][NMeL]I[Sar][Sar][NMeCha][dP][hPhe(3-Cl-4-CF3)]P)) | > 500
CC(C)C[C@H]1C(=O)N[C@@H](CCCCC(F)F)C(=O)N(C)CC(=O)N(C)CC(=O)N(C)[C@@H](CC2CCCCC2)C(=O)N(C)CC(=O)N[C@@H](CCc2ccc(C(F)(F)F)c(Cl)c2)C(=O)N2CCC[C@H]2C(=O)NC2(CCCC2)C(=O)N(C)[C@@H](C2CCCCC2)C(=O)N(C)[C@H](C(=O)N2CCCCC2)CC(=O)N1C [Compound 92] ([NMeL][hNle(7,7-F2)][Sar][Sar][NMeCha][Sar][hPhe(3-Cl-4-CF3)]P[Ac5c][NMeChg][NMeD]-Piperidide; lactam N-11) | > 500
CC[C@H](C)[C@@H]1NC(=O)[C@H](C)N(C)C(=O)C[C@@H](C)NC(=O)[C@H](C(C)C)N(C)C(=O)C(C)(C)N(C)C(=O)[C@@H]2CCCN2C(=O)[C@H](CCc2ccc(C(F)(F)F)c(Cl)c2)NC(=O)CN(C)C(=O)[C@H](CC2CCCCC2)N(C)C(=O)CN(C)C(=O)CN(C)C1=O [Compound 93] (cyclo(I[Sar][Sar][NMeCha][Sar][hPhe(3-Cl-4-CF3)]P[NMeAib][NMeV][d(β3hA)][NMeA])) | > 500
